Experimental data reported in PubChem BioAssay AID256 (DTP/NCI, 2004).
“And” between values parts separate entries of the source, which are not always exact repeats. Identical values can stand only once. Inconclusive results and toxic doses are left out.

System: CD2F1 mice, L1210 leukemia ip, survival T/C
Assay: NCI In Vivo Anticancer Drug Screen. Data for tumor model L1210 Leukemia (intraperitoneal) in CD2F1 (CDF1) mice
Conditions: higher = longer survival
In short: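 Vehicle-treated tumor-bearing mice served as controls (C) for compound-treated mice (T). Reported figure is T divided by C.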

[1] = endpoint: mean survival time, dose: 12.5 mg/kg/injection, schedule: Q01DX009 (ip), vehicle: Klucel (hydroxypropylcellulose) (HPC)
[2] = endpoint: mean survival time, dose: 25.0 mg/kg/injection, schedule: Q01DX009 (ip), vehicle: Klucel (hydroxypropylcellulose) (HPC)
[3] = endpoint: mean survival time, dose: 50.0 mg/kg/injection, schedule: Q01DX009 (ip), vehicle: Klucel (hydroxypropylcellulose) (HPC)
[4] = endpoint: mean survival time, dose: 100.0 mg/kg/injection, schedule: Q01DX009 (ip), vehicle: Klucel (hydroxypropylcellulose) (HPC)
[5] = endpoint: mean survival time, dose: 200.0 mg/kg/injection, schedule: Q01DX009 (ip), vehicle: Klucel (hydroxypropylcellulose) (HPC)
[6] = endpoint: mean survival time, dose: 400.0 mg/kg/injection, schedule: Q01DX009 (ip), vehicle: Klucel (hydroxypropylcellulose) (HPC)
[7] = endpoint: mean survival time, dose: 25.0 mg/kg/injection, schedule: Q04DX002 (ip), vehicle: saline with Tween-80
[8] = endpoint: mean survival time, dose: 50.0 mg/kg/injection, schedule: Q04DX002 (ip), vehicle: saline with Tween-80
[9] = endpoint: mean survival time, dose: 100.0 mg/kg/injection, schedule: Q04DX002 (ip), vehicle: saline with Tween-80
[10] = endpoint: mean survival time, dose: 100.0 mg/kg/injection, schedule: Q01DX001 (ip), vehicle: saline
[11] = endpoint: mean survival time, dose: 100.0 mg/kg/injection, schedule: Q04DX003 (ip), vehicle: saline with Tween-80
[12] = endpoint: mean survival time, dose: 200.0 mg/kg/injection, schedule: Q01DX001 (ip), vehicle: saline
[13] = endpoint: mean survival time, dose: 200.0 mg/kg/injection, schedule: Q04DX003 (ip), vehicle: saline with Tween-80
[14] = endpoint: mean survival time, dose: 400.0 mg/kg/injection, schedule: Q01DX001 (ip), vehicle: saline
[15] = endpoint: mean survival time, dose: 400.0 mg/kg/injection, schedule: Q04DX003 (ip), vehicle: saline with Tween-80
[16] = endpoint: mean survival time, dose: 100.0 mg/kg/injection, schedule: Q01DX009 (ip), vehicle: saline with Tween-80
[17] = endpoint: mean survival time, dose: 100.0 mg/kg/injection, schedule: Q01DX001 (ip), vehicle: saline with Tween-80
[18] = endpoint: mean survival time, dose: 200.0 mg/kg/injection, schedule: Q01DX001 (ip), vehicle: saline with Tween-80
[19] = endpoint: mean survival time, dose: 400.0 mg/kg/injection, schedule: Q01DX001 (ip), vehicle: saline with Tween-80

CC/C(=N/NS(=O)(=O)c1ccc(C)cc1)C(=O)O
T/C [1]: 101 % of control
T/C [2]: 98 % of control
T/C [3]: 91 % of control
T/C [4]: 96 % of control
T/C [5]: 93 % of control
T/C [6]: 91 % of control

N=C(N)SCc1c(Cl)c(Cl)c(Cl)c(Cl)c1Cl
T/C [7]: 103 % of control
T/C [8]: 98 % of control
T/C [9]: 98 % of control

COC(=O)CNC(=O)C(F)(F)F
T/C [10]: 104 % of control
T/C [11]: 103 % of control
T/C [12]: 112 % of control
T/C [13]: 101 % of control
T/C [14]: 104 % of control
T/C [15]: 103 % of control

S=C(Nc1ccccc1)Nc1ccc(NC(=S)Nc2ccccc2)cc1
T/C [16]: 86 % of control
T/C [11]: 92 % of control
T/C [13]: 92 % of control
T/C (endpoint: mean survival time, dose: 400.0 mg/kg/injection, schedule: Q01DX009 (ip), vehicle: saline with Tween-80): 94 % of control
T/C [15]: 86 % of control

CCCCCCCC/C=C\CCCCCCCC(=O)OCCCCCC
T/C [9]: 91 % of control
T/C (endpoint: mean survival time, dose: 200.0 mg/kg/injection, schedule: Q04DX002 (ip), vehicle: saline with Tween-80): 102 % of control
T/C (endpoint: mean survival time, dose: 400.0 mg/kg/injection, schedule: Q04DX002 (ip), vehicle: saline with Tween-80): 95 % of control

CCOC(=O)c1sc(C(=O)OCC)c(-c2ccccc2)c1-c1ccccc1
T/C [17]: 108 % of control
T/C [18]: 93 % of control
T/C [19]: 96 % of control

CC(C)CCCC(C)C1CCC2C3C(=O)C4=CC(=O)CCC4(C)C3CCC12C (stereo not drawn)
T/C [17]: 94 % of control
T/C [18]: 96 % of control
T/C [19]: 90 % of control

C=CCNc1ccc(OC)cc1
T/C [11]: 101 % of control
T/C [13]: 95 % of control

CN=NC1(OC(C)=O)CCCC1
T/C (endpoint: mean survival time, dose: 3.12 mg/kg/injection, schedule: Q01DX009 (ip), vehicle: saline): 109 % of control
T/C (endpoint: mean survival time, dose: 6.25 mg/kg/injection, schedule: Q01DX009 (ip), vehicle: saline): 111 % of control
T/C (endpoint: mean survival time, dose: 12.5 mg/kg/injection, schedule: Q01DX009 (ip), vehicle: saline): 118 % of control and 121 % of control
T/C (endpoint: mean survival time, dose: 25.0 mg/kg/injection, schedule: Q01DX009 (ip), vehicle: saline): 105 % of control

COC1=CC2=C3[C@H](Cc4cc5c(c(c4)Oc4ccc(cc4)C[C@H]4c6cc7c(cc6CCN4C)OCC3(O7)C1=O)OCO5)N(C)CC2 (stereo partly drawn)
T/C (endpoint: mean survival time, dose: 50.0 mg/kg/injection, schedule: Q04DX003 (ip), vehicle: saline with Tween-80): 96 % of control
T/C [11]: 98 % of control
T/C [13]: 96 % of control

O=c1[nH]cc(Cc2cccc3ccccc23)c(=O)[nH]1
T/C [17]: 92 % of control
T/C [18]: 94 % of control
T/C [19]: 86 % of control

O=S(=O)(SC(S(=O)(=O)c1ccccc1)S(=O)(=O)c1ccccc1)c1ccccc1
T/C [1]: 94 % of control and 105 % of control
T/C [2]: 97 % of control and 110 % of control
T/C [3]: 98 % of control and 102 % of control
T/C [4]: 96 % of control
T/C [5]: 92 % of control and 104 % of control
T/C [6]: 113 % of control and 94 % of control
T/C (endpoint: median survival time, dose: 100.0 mg/kg/injection, schedule: Q01DX009 (ip), vehicle: Klucel (hydroxypropylcellulose) (HPC)): 103 % of control
T/C (endpoint: median survival time, dose: 200.0 mg/kg/injection, schedule: Q01DX009 (ip), vehicle: Klucel (hydroxypropylcellulose) (HPC)): 102 % of control
T/C (endpoint: median survival time, dose: 400.0 mg/kg/injection, schedule: Q01DX009 (ip), vehicle: Klucel (hydroxypropylcellulose) (HPC)): 102 % of control
T/C (endpoint: median survival time, dose: 800.0 mg/kg/injection, schedule: Q01DX009 (ip), vehicle: Klucel (hydroxypropylcellulose) (HPC)): 92 % of control

CC(=O)OCC1OC(n2ncc3c(Sc4c([N+](=O)[O-])ncn4C)ncnc32)C(OC(C)=O)C1OC(C)=O (stereo not drawn)
T/C (endpoint: mean survival time, dose: 25.0 mg/kg/injection, schedule: Q01DX009 (ip), vehicle: other): 100 % of control
T/C (endpoint: mean survival time, dose: 50.0 mg/kg/injection, schedule: Q01DX009 (ip), vehicle: other): 102 % of control
T/C (endpoint: mean survival time, dose: 100.0 mg/kg/injection, schedule: Q01DX009 (ip), vehicle: other): 100 % of control

CCCCCCCCCCCCCCCC(=O)N(CCCCN(CCCN(C)C)C(=O)CCCCCCCCCCCCCCC)CCCN(C)C
T/C (endpoint: mean survival time, dose: 25.0 mg/kg/injection, schedule: Q01DX009 (ip), vehicle: saline with Tween-80): 93 % of control
T/C (endpoint: mean survival time, dose: 50.0 mg/kg/injection, schedule: Q01DX009 (ip), vehicle: saline with Tween-80): 91 % of control

COC(=O)/C=C/N(Cc1ccccc1)Cc1ccccc1
T/C [11]: 98 % of control
T/C [13]: 96 % of control
T/C [15]: 94 % of control

CCOC(=O)C(CC)(OC(C)=O)C(=O)C[n+]1ccccc1 (stereo not drawn)
T/C [10]: 108 % of control
T/C (endpoint: mean survival time, dose: 100.0 mg/kg/injection, schedule: Q04DX003 (ip), vehicle: saline): 101 % of control
T/C [12]: 106 % of control
T/C (endpoint: mean survival time, dose: 200.0 mg/kg/injection, schedule: Q04DX003 (ip), vehicle: saline): 101 % of control
T/C [14]: 106 % of control
T/C (endpoint: mean survival time, dose: 400.0 mg/kg/injection, schedule: Q04DX003 (ip), vehicle: saline): 101 % of control

O=C(Nc1ccc(OCC2=NCCN2)cc1)c1ccc(C(=O)Nc2ccc(OCC3=NCCN3)cc2)cc1
T/C (endpoint: median survival time, dose: 3.12 mg/kg/injection, schedule: Q01DX009 (ip), vehicle: saline with Tween-80): 102 % of control
T/C (endpoint: median survival time, dose: 6.25 mg/kg/injection, schedule: Q01DX009 (ip), vehicle: saline with Tween-80): 96 % of control
T/C (endpoint: median survival time, dose: 12.5 mg/kg/injection, schedule: Q01DX009 (ip), vehicle: saline with Tween-80): 98 % of control
T/C (endpoint: median survival time, dose: 25.0 mg/kg/injection, schedule: Q01DX009 (ip), vehicle: saline with Tween-80): 101 % of control
T/C (endpoint: median survival time, dose: 50.0 mg/kg/injection, schedule: Q01DX009 (ip), vehicle: saline with Tween-80): 98 % of control

CCCCCCC[CH2][Sn][CH2]CCCCCCC.Nc1ncnc2c1ncn2C1OC(CO)C2[OH+][OH+]C21 (stereo not drawn)
T/C (endpoint: mean survival time, dose: 12.5 mg/kg/injection, schedule: Q01DX005 (ip), vehicle: other): 98 % of control
T/C (endpoint: mean survival time, dose: 25.0 mg/kg/injection, schedule: Q01DX005 (ip), vehicle: other): 110 % of control

CCSCCNC1=C(C)C(=O)C2=C(C1=O)[C@H](COC(N)=O)[C@]1(OC)[C@@H]3N[C@@H]3CN21
T/C (endpoint: mean survival time, dose: 6.0 mg/kg/injection, schedule: Q01DX001 (ip), vehicle: distilled water + Tween-80): 121 % of control
T/C (endpoint: mean survival time, dose: 24.0 mg/kg/injection, schedule: Q01DX001 (ip), vehicle: distilled water + Tween-80): 155 % of control

COC1SCCCS1
T/C (endpoint: mean survival time, dose: 12.5 mg/kg/injection, schedule: Q04DX002 (ip), vehicle: saline with Tween-80): 97 % of control
T/C [7]: 108 % of control
T/C [8]: 105 % of control

CC1CN(c2ccccc2)NC1=O (stereo not drawn)
T/C (endpoint: mean survival time, dose: 100.0 mg/kg/injection, schedule: Q01DX009 (ip), vehicle: saline): 104 % of control
T/C (endpoint: mean survival time, dose: 200.0 mg/kg/injection, schedule: Q01DX009 (ip), vehicle: saline): 105 % of control
T/C (endpoint: mean survival time, dose: 400.0 mg/kg/injection, schedule: Q01DX009 (ip), vehicle: saline): 102 % of control

CC(C)[Si]1(C(C)C)OCC2OC(c3cn(C)c(=O)n(C)c3=O)C(OC(=S)n3ccnc3)C2O[Si](C(C)C)(C(C)C)O1 (stereo not drawn)
T/C (endpoint: median survival time, dose: 12.5 mg/kg/injection, schedule: Q01DX005 (ip), vehicle: distilled water + Tween-80): 98 % of control
T/C (endpoint: median survival time, dose: 25.0 mg/kg/injection, schedule: Q01DX005 (ip), vehicle: distilled water + Tween-80): 98 % of control
T/C (endpoint: median survival time, dose: 50.0 mg/kg/injection, schedule: Q01DX005 (ip), vehicle: distilled water + Tween-80): 92 % of control
T/C (endpoint: median survival time, dose: 100.0 mg/kg/injection, schedule: Q01DX005 (ip), vehicle: distilled water + Tween-80): 92 % of control
T/C (endpoint: median survival time, dose: 200.0 mg/kg/injection, schedule: Q01DX005 (ip), vehicle: distilled water + Tween-80): 92 % of control

CCN(CC)CCCC(C)Nc1ccnc2cc(Cl)ccc12 (stereo not drawn)
T/C (endpoint: mean survival time, dose: 100.0 mg/kg/injection, schedule: Q04DX002 (ip), vehicle: saline): 91 % of control

Cc1ccc(N=C(N)NC#N)cc1C
T/C [16]: 95 % of control
T/C (endpoint: mean survival time, dose: 200.0 mg/kg/injection, schedule: Q01DX009 (ip), vehicle: saline with Tween-80): 97 % of control
